Columns and labels:
Format in all cases: biochemical
GCK = target: T1, GCK (Homo sapiens, UniProt Q12851); assay: Kinase profiling GCK; settings: 100 micromolar inhibitor concentration, 100 is no change; for remaining activity at 100 µM: read-out: residual kinase activity, GCK
T1 sequence (Q12851 1-820): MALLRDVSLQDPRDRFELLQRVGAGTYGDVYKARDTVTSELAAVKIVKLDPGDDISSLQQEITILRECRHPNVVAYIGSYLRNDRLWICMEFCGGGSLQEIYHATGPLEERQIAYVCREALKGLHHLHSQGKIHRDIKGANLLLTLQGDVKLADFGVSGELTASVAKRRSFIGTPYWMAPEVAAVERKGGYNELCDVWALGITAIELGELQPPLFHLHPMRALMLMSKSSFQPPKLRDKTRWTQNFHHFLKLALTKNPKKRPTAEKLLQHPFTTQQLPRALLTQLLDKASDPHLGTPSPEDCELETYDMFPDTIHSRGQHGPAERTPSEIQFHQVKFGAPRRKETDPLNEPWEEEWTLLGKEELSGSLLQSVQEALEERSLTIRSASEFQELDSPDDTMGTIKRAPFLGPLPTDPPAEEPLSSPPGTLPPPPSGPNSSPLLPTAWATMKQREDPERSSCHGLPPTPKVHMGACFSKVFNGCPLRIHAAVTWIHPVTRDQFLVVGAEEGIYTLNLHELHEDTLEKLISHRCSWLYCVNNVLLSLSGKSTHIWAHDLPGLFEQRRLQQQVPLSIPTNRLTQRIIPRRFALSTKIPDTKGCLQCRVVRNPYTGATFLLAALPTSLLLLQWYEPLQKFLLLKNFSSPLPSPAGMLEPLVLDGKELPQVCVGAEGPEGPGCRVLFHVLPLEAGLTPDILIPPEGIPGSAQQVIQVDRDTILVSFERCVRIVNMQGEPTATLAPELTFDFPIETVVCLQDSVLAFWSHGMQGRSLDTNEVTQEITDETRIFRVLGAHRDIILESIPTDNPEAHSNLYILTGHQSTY
Excerpt: (§1) Any value less that 25 is considered to be highly significant inhibition.

Aurora A = target: T2, Aurora A (Homo sapiens, UniProt O14965); assay: Kinase profiling Aurora A; settings: 100 micromolar inhibitor concentration, 100 is no change; for remaining activity at 100 µM: read-out: residual kinase activity, Aurora A
T2 sequence (O14965 1-403): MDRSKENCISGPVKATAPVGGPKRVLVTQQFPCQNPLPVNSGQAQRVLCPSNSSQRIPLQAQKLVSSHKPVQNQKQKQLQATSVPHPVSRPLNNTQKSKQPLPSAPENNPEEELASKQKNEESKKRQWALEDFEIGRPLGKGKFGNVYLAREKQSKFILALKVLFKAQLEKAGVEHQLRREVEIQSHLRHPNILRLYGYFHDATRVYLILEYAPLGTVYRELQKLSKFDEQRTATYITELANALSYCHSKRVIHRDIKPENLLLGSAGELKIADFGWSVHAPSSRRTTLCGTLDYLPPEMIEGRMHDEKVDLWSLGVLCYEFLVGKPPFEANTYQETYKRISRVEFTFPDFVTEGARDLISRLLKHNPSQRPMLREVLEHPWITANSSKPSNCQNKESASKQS
Excerpt: as §1

SIK2 = SIK2 (Homo sapiens, UniProt Q9H0K1); assay: Kinase profiling SIK2; settings: 100 micromolar inhibitor concentration, 100 is no change; for remaining activity at 100 µM: read-out: residual kinase activity, SIK2
Sequence of SIK2 (Q9H0K1 whole entry, species assumed): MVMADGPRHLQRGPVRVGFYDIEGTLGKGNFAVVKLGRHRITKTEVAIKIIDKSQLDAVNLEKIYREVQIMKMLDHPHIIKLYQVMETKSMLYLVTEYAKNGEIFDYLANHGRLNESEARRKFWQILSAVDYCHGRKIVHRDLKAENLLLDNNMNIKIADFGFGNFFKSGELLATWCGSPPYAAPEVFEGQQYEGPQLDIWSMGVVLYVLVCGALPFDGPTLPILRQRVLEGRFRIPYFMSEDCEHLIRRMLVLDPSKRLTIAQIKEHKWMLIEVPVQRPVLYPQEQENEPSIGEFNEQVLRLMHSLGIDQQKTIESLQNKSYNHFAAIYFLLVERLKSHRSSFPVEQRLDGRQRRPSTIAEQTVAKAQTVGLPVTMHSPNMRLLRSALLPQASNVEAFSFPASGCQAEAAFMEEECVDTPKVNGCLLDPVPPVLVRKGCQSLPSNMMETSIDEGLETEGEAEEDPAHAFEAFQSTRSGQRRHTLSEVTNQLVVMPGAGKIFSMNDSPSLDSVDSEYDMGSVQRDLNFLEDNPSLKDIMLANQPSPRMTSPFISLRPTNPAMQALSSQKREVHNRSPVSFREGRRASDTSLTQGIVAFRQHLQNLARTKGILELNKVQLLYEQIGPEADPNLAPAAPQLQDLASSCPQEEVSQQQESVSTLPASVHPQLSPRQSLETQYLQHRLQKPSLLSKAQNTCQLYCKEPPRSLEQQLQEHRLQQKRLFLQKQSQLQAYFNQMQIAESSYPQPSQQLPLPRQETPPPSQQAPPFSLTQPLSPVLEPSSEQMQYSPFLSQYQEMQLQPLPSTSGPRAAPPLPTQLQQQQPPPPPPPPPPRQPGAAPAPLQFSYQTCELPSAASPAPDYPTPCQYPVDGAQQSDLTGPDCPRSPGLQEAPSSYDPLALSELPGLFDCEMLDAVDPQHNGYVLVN
Excerpt: as §1

TTBK1 = TTBK1 (Homo sapiens, UniProt Q5TCY1); assay: Kinase profiling TTBK1; settings: 100 micromolar inhibitor concentration, 100 is no change; for remaining activity at 100 µM: read-out: residual kinase activity, TTBK1
Sequence of TTBK1 (Q5TCY1 whole entry, species assumed): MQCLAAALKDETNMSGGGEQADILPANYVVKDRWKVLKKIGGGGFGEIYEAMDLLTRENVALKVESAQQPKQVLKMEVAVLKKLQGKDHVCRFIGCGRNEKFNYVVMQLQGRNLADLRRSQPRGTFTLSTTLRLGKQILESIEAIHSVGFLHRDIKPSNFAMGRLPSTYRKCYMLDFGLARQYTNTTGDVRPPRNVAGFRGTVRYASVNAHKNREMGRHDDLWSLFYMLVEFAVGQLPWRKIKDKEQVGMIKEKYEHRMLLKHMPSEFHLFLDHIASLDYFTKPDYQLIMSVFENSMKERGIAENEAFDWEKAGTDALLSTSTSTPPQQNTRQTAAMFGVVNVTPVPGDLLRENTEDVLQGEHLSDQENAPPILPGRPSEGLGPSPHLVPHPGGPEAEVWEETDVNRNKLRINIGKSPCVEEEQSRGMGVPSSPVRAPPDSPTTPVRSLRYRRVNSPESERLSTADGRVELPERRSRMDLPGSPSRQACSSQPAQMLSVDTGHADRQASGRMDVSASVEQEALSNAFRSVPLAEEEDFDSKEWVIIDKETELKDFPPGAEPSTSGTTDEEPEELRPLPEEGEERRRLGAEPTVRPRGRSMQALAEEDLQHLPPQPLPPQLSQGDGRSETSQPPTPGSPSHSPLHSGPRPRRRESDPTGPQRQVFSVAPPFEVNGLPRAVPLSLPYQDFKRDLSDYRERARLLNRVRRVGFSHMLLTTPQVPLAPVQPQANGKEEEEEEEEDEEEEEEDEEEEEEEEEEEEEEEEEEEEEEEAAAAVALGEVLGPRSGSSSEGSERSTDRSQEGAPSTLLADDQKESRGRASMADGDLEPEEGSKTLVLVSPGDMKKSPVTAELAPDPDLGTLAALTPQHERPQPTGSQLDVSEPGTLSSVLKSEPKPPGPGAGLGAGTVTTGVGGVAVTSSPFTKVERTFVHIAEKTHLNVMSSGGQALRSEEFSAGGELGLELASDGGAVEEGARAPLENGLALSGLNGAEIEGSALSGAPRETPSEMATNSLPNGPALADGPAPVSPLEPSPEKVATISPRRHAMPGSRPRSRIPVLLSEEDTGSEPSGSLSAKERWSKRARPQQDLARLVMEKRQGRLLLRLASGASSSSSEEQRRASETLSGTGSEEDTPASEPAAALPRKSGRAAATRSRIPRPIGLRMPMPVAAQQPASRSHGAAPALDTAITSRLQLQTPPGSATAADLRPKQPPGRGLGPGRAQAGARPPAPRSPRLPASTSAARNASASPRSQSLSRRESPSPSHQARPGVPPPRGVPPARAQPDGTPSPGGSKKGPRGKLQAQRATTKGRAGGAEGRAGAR
Excerpt: as §1

IRAK1 = IRAK1 (Homo sapiens, UniProt P51617); assay: Kinase profiling IRAK1; settings: 100 micromolar inhibitor concentration, 100 is no change; for remaining activity at 100 µM: read-out: residual kinase activity, IRAK1
Sequence of IRAK1 (P51617 whole entry, species assumed): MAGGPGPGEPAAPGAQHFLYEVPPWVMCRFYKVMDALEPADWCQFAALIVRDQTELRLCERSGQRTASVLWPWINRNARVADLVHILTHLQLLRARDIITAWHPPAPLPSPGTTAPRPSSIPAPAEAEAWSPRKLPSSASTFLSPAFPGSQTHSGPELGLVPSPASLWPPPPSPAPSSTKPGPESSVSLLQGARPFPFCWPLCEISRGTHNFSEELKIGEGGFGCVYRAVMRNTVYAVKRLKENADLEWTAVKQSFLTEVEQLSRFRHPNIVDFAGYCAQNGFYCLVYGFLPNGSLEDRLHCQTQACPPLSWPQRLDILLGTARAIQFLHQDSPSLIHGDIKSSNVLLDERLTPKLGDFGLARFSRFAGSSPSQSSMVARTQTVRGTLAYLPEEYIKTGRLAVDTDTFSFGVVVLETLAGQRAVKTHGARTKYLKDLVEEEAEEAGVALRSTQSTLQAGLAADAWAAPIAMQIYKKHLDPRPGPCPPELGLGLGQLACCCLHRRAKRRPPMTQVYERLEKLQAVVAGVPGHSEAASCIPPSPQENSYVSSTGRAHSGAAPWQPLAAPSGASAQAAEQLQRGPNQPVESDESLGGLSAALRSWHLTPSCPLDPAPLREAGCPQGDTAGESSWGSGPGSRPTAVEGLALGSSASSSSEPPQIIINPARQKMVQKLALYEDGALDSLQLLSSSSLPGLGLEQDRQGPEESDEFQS
Excerpt: as §1

MPSK1 = MPSK1 (Homo sapiens, UniProt O75716); assay: Kinase profiling MPSK1; settings: 100 micromolar inhibitor concentration, 100 is no change; for remaining activity at 100 µM: read-out: residual kinase activity, MPSK1
Sequence of MPSK1 (O75716 whole entry, species assumed): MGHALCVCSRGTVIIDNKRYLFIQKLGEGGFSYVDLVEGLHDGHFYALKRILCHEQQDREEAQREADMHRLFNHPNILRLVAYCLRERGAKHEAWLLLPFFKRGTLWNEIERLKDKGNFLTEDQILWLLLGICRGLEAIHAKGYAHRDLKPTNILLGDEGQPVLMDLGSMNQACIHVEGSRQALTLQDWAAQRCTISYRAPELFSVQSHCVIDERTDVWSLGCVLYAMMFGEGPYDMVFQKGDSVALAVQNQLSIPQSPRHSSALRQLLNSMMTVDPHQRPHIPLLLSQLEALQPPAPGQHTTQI
Excerpt: as §1

IR = IR (Homo sapiens, UniProt P06213); assay: Kinase profiling IR; settings: 100 micromolar inhibitor concentration, 100 is no change; for remaining activity at 100 µM: read-out: residual kinase activity, IR
Sequence of IR (P06213 28-1382): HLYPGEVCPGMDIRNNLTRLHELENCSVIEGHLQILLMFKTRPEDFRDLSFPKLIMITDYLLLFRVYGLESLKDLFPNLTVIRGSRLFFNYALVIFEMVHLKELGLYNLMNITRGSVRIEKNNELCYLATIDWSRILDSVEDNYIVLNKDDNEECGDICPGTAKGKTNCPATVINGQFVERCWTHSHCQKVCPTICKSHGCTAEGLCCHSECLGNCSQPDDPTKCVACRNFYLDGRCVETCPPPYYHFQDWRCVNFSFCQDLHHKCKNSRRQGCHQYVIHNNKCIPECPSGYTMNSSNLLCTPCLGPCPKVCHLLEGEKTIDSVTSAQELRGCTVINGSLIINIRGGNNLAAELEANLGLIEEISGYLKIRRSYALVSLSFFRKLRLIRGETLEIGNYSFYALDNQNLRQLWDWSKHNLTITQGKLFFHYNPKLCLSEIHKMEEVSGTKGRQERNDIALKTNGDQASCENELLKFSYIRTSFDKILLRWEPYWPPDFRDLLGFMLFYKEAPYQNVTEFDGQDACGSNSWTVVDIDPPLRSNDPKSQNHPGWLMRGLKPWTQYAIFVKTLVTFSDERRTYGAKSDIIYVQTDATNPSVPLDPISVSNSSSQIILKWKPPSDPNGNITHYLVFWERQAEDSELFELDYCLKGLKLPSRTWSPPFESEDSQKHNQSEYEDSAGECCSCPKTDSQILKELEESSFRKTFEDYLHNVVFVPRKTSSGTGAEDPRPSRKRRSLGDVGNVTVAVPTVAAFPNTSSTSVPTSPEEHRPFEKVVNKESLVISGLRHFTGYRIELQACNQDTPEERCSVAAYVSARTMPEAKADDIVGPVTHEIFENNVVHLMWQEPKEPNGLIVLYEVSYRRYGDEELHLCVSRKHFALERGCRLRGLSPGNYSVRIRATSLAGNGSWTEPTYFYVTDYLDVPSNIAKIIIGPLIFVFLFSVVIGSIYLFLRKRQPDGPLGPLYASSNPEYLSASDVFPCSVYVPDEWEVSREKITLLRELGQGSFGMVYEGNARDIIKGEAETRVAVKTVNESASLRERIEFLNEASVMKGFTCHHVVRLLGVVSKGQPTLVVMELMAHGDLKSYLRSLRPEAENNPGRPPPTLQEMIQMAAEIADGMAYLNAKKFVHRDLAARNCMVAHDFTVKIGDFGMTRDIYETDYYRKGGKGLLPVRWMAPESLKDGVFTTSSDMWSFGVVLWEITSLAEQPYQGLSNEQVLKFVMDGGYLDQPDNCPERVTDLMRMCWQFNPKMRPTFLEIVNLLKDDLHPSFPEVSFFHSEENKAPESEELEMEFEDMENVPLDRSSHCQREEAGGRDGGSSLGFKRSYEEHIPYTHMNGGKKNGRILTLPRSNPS
Excerpt: as §1

BRSK1 = target: T3, BRSK1 (Homo sapiens, UniProt Q8TDC3); assay: Kinase profiling BRSK1; settings: 100 micromolar inhibitor concentration, 100 is no change; for remaining activity at 100 µM: read-out: residual kinase activity, BRSK1
T3 sequence (Q8TDC3 1-778): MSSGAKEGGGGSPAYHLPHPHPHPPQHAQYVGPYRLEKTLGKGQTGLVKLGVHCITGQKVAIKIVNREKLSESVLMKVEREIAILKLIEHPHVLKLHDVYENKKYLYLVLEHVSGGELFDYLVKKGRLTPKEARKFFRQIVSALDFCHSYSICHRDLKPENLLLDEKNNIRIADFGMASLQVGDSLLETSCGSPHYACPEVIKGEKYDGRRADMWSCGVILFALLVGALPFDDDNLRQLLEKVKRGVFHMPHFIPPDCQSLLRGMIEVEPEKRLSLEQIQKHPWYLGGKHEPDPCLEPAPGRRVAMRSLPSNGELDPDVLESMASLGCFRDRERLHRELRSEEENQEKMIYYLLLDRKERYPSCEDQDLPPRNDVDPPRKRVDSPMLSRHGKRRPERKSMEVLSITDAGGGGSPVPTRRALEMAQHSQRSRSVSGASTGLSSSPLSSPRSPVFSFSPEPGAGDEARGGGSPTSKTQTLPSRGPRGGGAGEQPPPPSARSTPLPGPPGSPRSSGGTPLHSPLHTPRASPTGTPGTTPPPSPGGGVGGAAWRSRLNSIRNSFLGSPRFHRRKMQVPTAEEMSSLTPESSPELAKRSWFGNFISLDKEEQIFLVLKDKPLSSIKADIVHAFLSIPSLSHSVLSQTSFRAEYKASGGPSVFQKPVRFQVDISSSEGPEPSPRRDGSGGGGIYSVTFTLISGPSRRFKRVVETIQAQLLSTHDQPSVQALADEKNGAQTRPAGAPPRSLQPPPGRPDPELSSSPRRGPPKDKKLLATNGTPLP
Excerpt: as §1

PHK = assay: Kinase profiling PHK; settings: 100 micromolar inhibitor concentration; 100 is no change
Excerpt: as §1

AMPK = assay: Kinase profiling AMPK; settings: 100 micromolar inhibitor concentration; 100 is no change
Excerpt: as §1

HIPK1 = HIPK1 (Homo sapiens, UniProt Q86Z02); assay: Kinase profiling HIPK1; settings: 100 micromolar inhibitor concentration, 100 is no change; for remaining activity at 100 µM: read-out: residual kinase activity, HIPK1
Excerpt: as §1

TSSK1 = target: T4, TSSK1 (Homo sapiens, UniProt Q9BXA7); assay: Kinase profiling TSSK1; settings: 100 micromolar inhibitor concentration, 100 is no change; for remaining activity at 100 µM: read-out: residual kinase activity, TSSK1
T4 sequence (Q9BXA7 1-367): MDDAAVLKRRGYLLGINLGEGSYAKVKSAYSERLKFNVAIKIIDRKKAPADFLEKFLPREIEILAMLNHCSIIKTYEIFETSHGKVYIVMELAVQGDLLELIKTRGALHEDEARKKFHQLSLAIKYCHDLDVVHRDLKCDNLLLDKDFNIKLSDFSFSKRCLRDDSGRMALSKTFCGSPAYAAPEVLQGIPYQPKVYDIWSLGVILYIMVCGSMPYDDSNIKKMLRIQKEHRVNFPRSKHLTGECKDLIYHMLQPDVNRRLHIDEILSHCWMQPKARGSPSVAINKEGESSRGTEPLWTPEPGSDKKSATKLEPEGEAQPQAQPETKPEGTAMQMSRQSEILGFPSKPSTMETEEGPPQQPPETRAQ
Excerpt: as §1

| Compound | remaining activity at 100 µM (GCK) | remaining activity at 100 µM (Aurora A) | remaining activity at 100 µM (SIK2) | remaining activity at 100 µM (TTBK1) | remaining activity at 100 µM (IRAK1) | remaining activity at 100 µM (MPSK1) | remaining activity at 100 µM (IR) | remaining activity at 100 µM (BRSK1) | residual kinase activity, PHK (PHK) | residual kinase activity, AMPK (AMPK) | residual kinase activity, GCK (GCK) | residual kinase activity, Aurora A (Aurora A) | residual kinase activity, SIK2 (SIK2) | residual kinase activity, TTBK1 (TTBK1) | residual kinase activity, IRAK1 (IRAK1) | residual kinase activity, MPSK1 (MPSK1) | residual kinase activity, IR (IR) | residual kinase activity, BRSK1 (BRSK1) | residual kinase activity, HIPK1 (HIPK1) | residual kinase activity, TSSK1 (TSSK1) | also measured |
| --- | --- | --- | --- | --- | --- | --- | --- | --- | --- | --- | --- | --- | --- | --- | --- | --- | --- | --- | --- | --- | --- |
| COc1ccc2sc(NC(C)=O)nc2c1 [Compound 03-21] | 3% | 103% | 89% | 93% | 45% | 97% | 109% | 85% | 111 | 100 |  |  |  |  |  |  |  |  |  |  | remaining activity at 100 µM (HIPK1): 39%; remaining activity at 100 µM (TSSK1): 75% |
| CC(=O)Nc1nc2ccccc2s1 [Compound 03-32] |  |  |  |  |  |  |  |  | 94 | 107 | 39 | 109 | 81 | 80 | 65 | 86 | 87 | 95 | 62 | 83 |  |
| O=C(Nc1nc2cc(O)ccc2s1)c1cccnc1 [Compound 03-33] |  |  |  |  |  |  |  |  | 74 | 91 | 25 | 108 | 69 | 89 | 57 | 101 | 105 | 83 | 41 | 75 |  |
| O=C(Nc1nc2ccc(O)cc2s1)c1ccccc1 [Compound 03-60] |  |  |  |  |  |  |  |  | 33 | 30 | 4 | 82 | 26 | 46 | 26 | 106 | 31 | 43 | 9 | 27 |  |
| CC(=O)Nc1nc2cc(C(F)(F)F)ccc2s1 [Compound 03-73] | 36% | 96% | 91% | 94% | 85% | 97% | 102% | 83% | 91 | 75 |  |  |  |  |  |  |  |  |  |  | remaining activity at 100 µM (HIPK1): 74%; remaining activity at 100 µM (TSSK1): 71% |
| CC(=O)Nc1nc2cc(C)ccc2s1 [Compound 03-76] |  |  |  |  |  |  |  |  | 87 | 77 | 35 | 109 | 71 | 84 | 59 | 91 | 97 | 75 | 53 | 79 |  |
| CC(=O)Nc1nc2cc(F)ccc2s1 [Compound 03-77] | 8% | 100% | 64% | 80% | 46% | 86% | 87% | 78% | 89 | 73 |  |  |  |  |  |  |  |  |  |  | remaining activity at 100 µM (HIPK1): 40%; remaining activity at 100 µM (TSSK1): 84% |
| O=C(Nc1nc2ccc(O)cc2s1)c1ccncc1 [Compound 08-42] |  |  |  |  |  |  |  |  | 58 | 61 | 27 | 103 | 82 | 70 | 38 | 77 | 51 | 56 | 44 | 85 |  |
| O=C(Nc1nc2ccc(O)cc2s1)c1cccnc1 [Compound 08-44] |  |  |  |  |  |  |  |  | 43 | 48 | 31 | 99 | 68 | 47 | 37 | 81 | 35 | 45 | 43 | 109 |  |

Reference: patent US10231954B2, “Neurodegenerative therapies” (LYTIX BIOPHARMA AS, priority 2014, dated 2019)
